# Results taken from PubChem BioAssay AID1259407 (Chemical Carcinogenesis Research Information System (CCRIS), 2018).
# Calls of active or inactive are those of the source. No rule for the calls is given here.
# Test system: CCRIS mutagenicity, Ames/micronucleus/aberration tests
# Test: CCRIS mutagenicity studies
# [1] = Test System: AMES SALMONELLA TYPHIMURIUM, Strain/Indicator: TA98, Metabolic Activation: NONE, Method: PREINCUBATION
# [2] = Test System: E. coli, Strain/Indicator: WP2uvrA/pKM101, Metabolic Activation: None, Method: Preincubation
# [3] = Test System: Ames Salmonella typhimurium, Strain/Indicator: TA98, Metabolic Activation: None, Method: Preincubation
# [4] = Test System: Ames Salmonella typhimurium, Strain/Indicator: TA100, Metabolic Activation: None, Method: Preincubation
# [5] = Test System: Ames Salmonella typhimurium, Strain/Indicator: TA1535, Metabolic Activation: None, Method: Preincubation
# [6] = Test System: AMES SALMONELLA TYPHIMURIUM, Strain/Indicator: TA100, Metabolic Activation: NONE, Method: PREINCUBATION
# [7] = Test System: AMES SALMONELLA TYPHIMURIUM, Strain/Indicator: TA1535, Metabolic Activation: NONE, Method: PREINCUBATION
# [8] = Test System: AMES SALMONELLA TYPHIMURIUM, Strain/Indicator: TA1537, Metabolic Activation: NONE, Method: PREINCUBATION
smiles,measurement,setting,value
O=C1C=CCO1,mutagenic call,"Test System: AMES SALMONELLA TYPHIMURIUM, Strain/Indicator: TA98, Metabolic Activation: RAT, LIVER, MICROSOMES, PHENOBARBITAL, Method: STANDARD PLATE",inactive; negative
same,mutagenic call,"Test System: AMES SALMONELLA TYPHIMURIUM, Strain/Indicator: TA100, Metabolic Activation: RAT, LIVER, MICROSOMES, PHENOBARBITAL, Method: STANDARD PLATE",inactive; negative
CCc1c2ccccc2cc2c1c1c(c3ccccc32)O1,mutagenic call,[1],active; positive
FC(F)(F)c1ccc(Cl)c(Cl)c1,mutagenic call,[2],inactive; negative
same,mutagenic call,"Test System: E. coli, Strain/Indicator: WP2uvrA/pKM101, Metabolic Activation: Rat, Liver, S9, Sodium phenobarbital and 5,6-benzoflavone, Method: Preincubation",inactive; negative
CCCCCCCC/C=C\CCCCCCCC(N)=O,mutagenic call,[3],inactive; negative. precipitation at 3 highest doses.
same,mutagenic call,"Test System: Ames Salmonella typhimurium, Strain/Indicator: TA98, Metabolic Activation: Rat, Liver, S9, Phenobarbital and 5,6-benzoflavone, Method: Preincubation",inactive; negative. precipitation at 3 highest doses.
same,mutagenic call,[4],inactive; negative. precipitation at 3 highest doses.
same,mutagenic call,"Test System: Ames Salmonella typhimurium, Strain/Indicator: TA100, Metabolic Activation: Rat, Liver, S9, Phenobarbital and 5,6-benzoflavone, Method: Preincubation",inactive; negative. precipitation at 3 highest doses.
same,mutagenic call,[5],inactive; negative. precipitation at 3 highest doses.
same,mutagenic call,"Test System: Ames Salmonella typhimurium, Strain/Indicator: TA1535, Metabolic Activation: Rat, Liver, S9, Phenobarbital and 5,6-benzoflavone, Method: Preincubation",inactive; negative. precipitation at 3 highest doses.
same,mutagenic call,"Test System: Ames Salmonella typhimurium, Strain/Indicator: TA1537, Metabolic Activation: None, Method: Preincubation",inactive; negative. precipitation at 3 highest doses.
same,mutagenic call,"Test System: Ames Salmonella typhimurium, Strain/Indicator: TA1537, Metabolic Activation: Rat, Liver, S9, Phenobarbital and 5,6-benzoflavone, Method: Preincubation",inactive; negative. precipitation at 3 highest doses.
same,mutagenic call,[2],inactive; negative. precipitation at 3 highest doses.
same,mutagenic call,"Test System: E. coli, Strain/Indicator: WP2uvrA/pKM101, Metabolic Activation: Rat, Liver, S9, Phenobarbital and 5,6-benzoflavone, Method: Preincubation",inactive; negative. precipitation at 3 highest doses.
Cc1c2c(cc3c1ccc1ccccc13)C=C[C@@H](O)[C@@H]2O,mutagenic call,"Test System: CHINESE HAMSTER V-79, Strain/Indicator: V-79/8-AZAGUANINE, Metabolic Activation: NONE, Method: STANDARD PLATE",active; positive
CCn1c2ccccc2c2ccccc21,mutagenic call,"Test System: UDS PRIMARY RAT HEPATOCYTES, Strain/Indicator: THY INCORP, Metabolic Activation: NONE, Method: AUTORADIOGRAPHY",active; positive
CC(=O)/C=C/C1=C(C)CCCC1(C)C,mutagenic call,"Test System: AMES SALMONELLA TYPHIMURIUM, Strain/Indicator: TA98, Metabolic Activation: HAMSTER, LIVER, S-9, AROCLOR 1254 (10%), Method: PREINCUBATION",inactive; negative
same,mutagenic call,[1],inactive; negative
same,mutagenic call,"Test System: AMES SALMONELLA TYPHIMURIUM, Strain/Indicator: TA98, Metabolic Activation: RAT, LIVER, S-9, AROCLOR 1254 (10%), Method: PREINCUBATION",inactive; negative
same,mutagenic call,"Test System: AMES SALMONELLA TYPHIMURIUM, Strain/Indicator: TA100, Metabolic Activation: HAMSTER, LIVER, S-9, AROCLOR 1254 (10%), Method: PREINCUBATION",inactive; negative
same,mutagenic call,[6],inactive; negative
same,mutagenic call,"Test System: AMES SALMONELLA TYPHIMURIUM, Strain/Indicator: TA100, Metabolic Activation: RAT, LIVER, S-9, AROCLOR 1254 (10%), Method: PREINCUBATION",inactive; negative
same,mutagenic call,"Test System: AMES SALMONELLA TYPHIMURIUM, Strain/Indicator: TA1535, Metabolic Activation: HAMSTER, LIVER, S-9, AROCLOR 1254 (10%), Method: PREINCUBATION",inactive; negative
same,mutagenic call,[7],inactive; negative
same,mutagenic call,"Test System: AMES SALMONELLA TYPHIMURIUM, Strain/Indicator: TA1535, Metabolic Activation: RAT, LIVER, S-9, AROCLOR 1254 (10%), Method: PREINCUBATION",inactive; negative
same,mutagenic call,"Test System: AMES SALMONELLA TYPHIMURIUM, Strain/Indicator: TA1537, Metabolic Activation: HAMSTER, LIVER, S-9, AROCLOR 1254 (10%), Method: PREINCUBATION",inactive; negative
same,mutagenic call,[8],inactive; negative
same,mutagenic call,"Test System: AMES SALMONELLA TYPHIMURIUM, Strain/Indicator: TA1537, Metabolic Activation: RAT, LIVER, S-9, AROCLOR 1254 (10%), Method: PREINCUBATION",inactive; negative
same,mutagenic call,"Test System: Ames Salmonella typhimurium, Strain/Indicator: TA97a, Metabolic Activation: None, Method: Preincubation",inactive; negative
same,mutagenic call,"Test System: Ames Salmonella typhimurium, Strain/Indicator: TA97a, Metabolic Activation: None, Method: Standard plate",inactive; negative
same,mutagenic call,"Test System: Ames Salmonella typhimurium, Strain/Indicator: TA97a, Metabolic Activation: Rat, Liver, S-9, Aroclor 1254, Method: Preincubation",inactive; negative
same,mutagenic call,"Test System: Ames Salmonella typhimurium, Strain/Indicator: TA97a, Metabolic Activation: Rat, Liver, S-9, Aroclor 1254, Method: Standard plate",inactive; negative
same,mutagenic call,[3],inactive; negative
same,mutagenic call,"Test System: Ames Salmonella typhimurium, Strain/Indicator: TA98, Metabolic Activation: None, Method: Standard plate",inactive; negative
same,mutagenic call,"Test System: Ames Salmonella typhimurium, Strain/Indicator: TA98, Metabolic Activation: Rat, Liver, S-9, Aroclor 1254, Method: Preincubation",inactive; negative
same,mutagenic call,"Test System: Ames Salmonella typhimurium, Strain/Indicator: TA98, Metabolic Activation: Rat, Liver, S-9, Aroclor 1254, Method: Standard plate",inactive; negative
same,mutagenic call,[4],inactive; negative
same,mutagenic call,"Test System: Ames Salmonella typhimurium, Strain/Indicator: TA100, Metabolic Activation: None, Method: Standard plate",inactive; negative
same,mutagenic call,"Test System: Ames Salmonella typhimurium, Strain/Indicator: TA100, Metabolic Activation: Rat, Liver, S-9, Aroclor 1254, Method: Preincubation",inactive; negative
same,mutagenic call,"Test System: Ames Salmonella typhimurium, Strain/Indicator: TA100, Metabolic Activation: Rat, Liver, S-9, Aroclor 1254, Method: Standard plate",inactive; negative
same,mutagenic call,[5],inactive; negative
same,mutagenic call,"Test System: Ames Salmonella typhimurium, Strain/Indicator: TA1535, Metabolic Activation: None, Method: Standard plate",inactive; negative
same,mutagenic call,"Test System: Ames Salmonella typhimurium, Strain/Indicator: TA1535, Metabolic Activation: Rat, Liver, S-9, Aroclor 1254, Method: Preincubation",inactive; negative
same,mutagenic call,"Test System: Ames Salmonella typhimurium, Strain/Indicator: TA1535, Metabolic Activation: Rat, Liver, S-9, Aroclor 1254, Method: Standard plate",inactive; negative
CCN(CC)CCCN(c1ccccc1)C1Cc2ccccc2C1,mutagenic call,[1],inactive; negative
same,mutagenic call,"Test System: AMES SALMONELLA TYPHIMURIUM, Strain/Indicator: TA98, Metabolic Activation: S-9, Method: PREINCUBATION",inactive; negative
same,mutagenic call,[6],inactive; negative
same,mutagenic call,"Test System: AMES SALMONELLA TYPHIMURIUM, Strain/Indicator: TA100, Metabolic Activation: S-9, Method: PREINCUBATION",inactive; negative
same,mutagenic call,[7],inactive; negative
same,mutagenic call,"Test System: AMES SALMONELLA TYPHIMURIUM, Strain/Indicator: TA1535, Metabolic Activation: S-9, Method: PREINCUBATION",inactive; negative
same,mutagenic call,[8],inactive; negative
same,mutagenic call,"Test System: AMES SALMONELLA TYPHIMURIUM, Strain/Indicator: TA1537, Metabolic Activation: S-9, Method: PREINCUBATION",inactive; negative
same,mutagenic call,"Test System: AMES SALMONELLA TYPHIMURIUM, Strain/Indicator: TA1538, Metabolic Activation: NONE, Method: PREINCUBATION",inactive; negative
same,mutagenic call,"Test System: AMES SALMONELLA TYPHIMURIUM, Strain/Indicator: TA1538, Metabolic Activation: S-9, Method: PREINCUBATION",inactive; negative
same,mutagenic call,"Test System: E. COLI, Strain/Indicator: WP2 UVRA, Metabolic Activation: NONE, Method: PREINCUBATION",inactive; negative
same,mutagenic call,"Test System: E. COLI, Strain/Indicator: WP2 UVRA, Metabolic Activation: S-9, Method: PREINCUBATION",inactive; negative
